Reference: patent US10130605B2, “Compositions for use in treating inflammatory bowel diseases and intestinal colitis” (TaiRx Inc., priority 2017, dated 2018)
Entries after “also recorded” stand apart in the source; their conditions may differ.

Columns and labels:
Assay type in all cases: in vivo
[1] = system: DSS-induced colitis mice; assay: DSS-induced acute colitis in mouse: disease activity index (DAI) score; conditions: for DAI: Diacerein 30 and 60 mg/kg; for decrease in fecal blood score than the DSS-induced vehicle group: not statistically significant
Protocol: (§1) Induction of acute colitis. Acute colitis was induced by giving mice with 2.5% DSS (MP Biomedicals) in a drinking water for 5 consecutive days. The DSS administration was taken place in two separate days; where the mice were divided into two groups based on their body weight before the day of the DSS administration.
(§2) Route of drug administration.
(§3) Treatment doses. Diacerein was administered at 2 dose levels of 30 and 60 mg/kg, once daily for 5 days.
(§4) Animals. Eight-week-old female C57BL/6 mice were obtained from Japan SLC, Inc. (Japan). All animals used in the study were housed and cared in accordance with the Japanese Pharmacological Society Guidelines for Animal Use.
Measurement of disease activity index score. A disease activity index (DAI) was calculated daily by summation of the following parameters: • (i) Weight loss (0=no weight loss; 1=1-5% weight loss; 2=6-10% weight loss; 3=11-15% weight loss; and 4=>15% weight loss); • (ii) Occult blood positivity (0=no bleeding; 1=occult blood test (+); 2=occult blood test (++); 3=occult blood test (+++); and 4=gross bleeding from the anus); and • (iii) Stool consistency (0=normal stools; 2=loose stools; 4=diarrhea).
(§5) The pharmacological effects of aloe-emodin, emodin, and rhein were also respectively tested using the same protocol described above.

[2] = system: DSS-induced colitis mice; assay: DSS-induced acute colitis in mouse: body weight, colon length, colon weight, general condition; conditions: for Colon length / Colon weight / Colon-to-BW ratio: colon-to-body weight ratio / BW: body weight on the day of sacrifice: sacrifice day 5; for Colon length / Colon weight / Colon-to-BW ratio: colon-to-body weight ratio: geometric mean ± SEM; for BW: body weight on the day of sacrifice: mean ± SEM, n=8
Protocol: as §1, §2, §3, §4
The average body weight of mice is about 18-22 grams.
The viability, clinical signs and behavior were monitored daily. Body weight was recorded before the treatment. […] Mice were sacrificed by exsanguinations through direct cardiac puncture under isoflurane anesthesia (Pfizer Inc.). Colon length and weight were measured from the end of the cecum to the anus.
as §5

[3] = system: DSS-induced colitis mice; assay: DSS-induced acute colitis in mouse: histological analysis of HE-stained colon sections; conditions: for loss/damage of crypt and epithelium in colon sections vs DSS-induced vehicle group: FIGS. 5B-C, same protocol, dose not given; for loss of crypt and epithelium in HE-stained colon sections vs Vehicle group: FIG. 5A
Protocol: as §1, §2, §3, §4
Histological analyses. For HE staining, sections were cut from paraffin blocks of colon tissue prefixed in 10% neutral buffered formalin (Wako Pure Chemical Industries, Japan) and stained with Lillie-Mayer's Hematoxylin (Muto Pure Chemicals Co., Ltd., Japan) and eosin solution (Wako Pure Chemical Industries). Representative photos of the changes observed were captured from each group.
as §5

[4] = system: DSS-induced colitis mice; assay: DSS-induced acute colitis in mouse: macroscopic scoring of colon tissue (colonic damage score); conditions: for colonic damage score / diarrhea score / thickness score / ulceration score: sacrifice day 5
Protocol: as §1, §2, §3, §4
Macroscopic scoring of colon tissue. Colonic damage was scored using the published criteria of measurement (Wallace et al, Gastroenterology, 1992, 102, 18-27). […]

[5] = summary b147-b150, same protocol, dose not given
[6] = summary b148-b149, same protocol, dose not given
[7] = summary b149-b150, same protocol, dose not given
[8] = Diacerein 30 mg/kg PO QD day 0-4
[9] = Diacerein 60 mg/kg PO QD day 0-4
[10] = Mesalazine 100 mg/kg, Day 2 and 3
[11] = Mesalazine, dose not given, Day 2 and 3
[12] = both Mesalazine groups (20 and 100 mg/kg), Day 5
[13] = Mesalazine 20 mg/kg PO QD day 0-4
[14] = Mesalazine 100 mg/kg PO QD day 0-4

Cc1cc(O)c2c(c1)C(=O)c1cc(O)cc(O)c1C2=O [Emodin, 1,3,8-Trihydroxy-6-methyl-9,10-anthracenedione]
DAI results (in words) ([1]; same protocol, dose not given): effective | body weight score (in words) [1, 5]: significant effects on reducing | fecal blood score (in words) [1, 6]: significant effects on reducing | diarrheal stool score (in words) [1, 7]: significant effects on reducing | colon weight vs DSS-induced vehicle group (in words) ([2]; same protocol, dose not given): significant improvement in colon weight | colon-to-body weight ratio vs DSS-induced vehicle group (in words) ([2]; same protocol, dose not given): significant reduction in the colon-to-body weight ratio | prevention of the body weight loss by DSS-induction (in words) ([2]; same protocol, dose not given): able to prevent the body weight loss

O=C1c2cccc(O)c2C(=O)c2c(O)cc(CO)cc21 [Aloe-emodin, 1,8-Dihydroxy-3-(hydroxymethyl)anthraquinone]
loss/damage of crypt and epithelium in colon sections vs DSS-induced vehicle group [3]: less loss of crypt and epithelium; also recorded: clearly reduced | DAI results (in words) ([1]; same protocol, dose not given): effective | body weight score (in words) [1, 5]: significant effects on reducing the body weight score | fecal blood score (in words) [1, 6]: significant effects on reducing the fecal blood score | colon-to-body weight ratio vs DSS-induced vehicle group (in words) ([2]; same protocol, dose not given): significant improvement in the colon-to-body weight ratio | prevention of the body weight loss by DSS-induction (in words) ([2]; same protocol, dose not given): able to prevent the body weight loss

O=C(O)c1cc(O)c2c(c1)C(=O)c1cccc(O)c1C2=O [Rhein, 4,5-Dihydroxyanthraquinone-2-carboxylic acid]
loss/damage of crypt and epithelium in colon sections vs DSS-induced vehicle group [3]: less loss of crypt and epithelium; also recorded: clearly reduced | DAI results (in words) ([1]; same protocol, dose not given): effective | body weight score (in words) [1, 5]: significant effects on reducing the body weight score | diarrheal stool score (in words) [1, 7]: significant effects on reducing the diarrheal stool score | colon weight vs DSS-induced vehicle group (in words) ([2]; same protocol, dose not given): significant improvement in colon weight | colon-to-body weight ratio vs DSS-induced vehicle group (in words) ([2]; same protocol, dose not given): significant reduction in the colon-to-body weight ratio | prevention of the body weight loss by DSS-induction (in words) ([2]; same protocol, dose not given): able to prevent the body weight loss

CC(=O)Oc1cccc2c1C(=O)c1c(OC(C)=O)cc(C(=O)O)cc1C2=O [Diacerein, 1,8-Diacetoxy-3-carboxyanthraquinone]
loss of crypt and epithelium in HE-stained colon sections vs Vehicle group ([3]; Diacerein treatment groups (30 and 60 mg/kg)): less loss of crypt and epithelium | fecal blood score vs Vehicle group (in words) ([1]; Diacerein 30 mg/kg, during the treatment): decreased slight fecal blood | fecal blood score vs Vehicle group (in words) ([1]; Diacerein 60 mg/kg, during the treatment): more significant reduction | DAI ([1]; Day 4 (vehicle 6.4)): ~5.1 | DAI ([1]; Day 5 (vehicle 7.1)): ~6.3 | body weight score ([1]; Diacerein treatment groups (30 and 60 mg/kg), Day 4, p<0.05 (vehicle 1.0)): 0.1-0.3 | body weight score ([1]; Diacerein treatment groups (30 and 60 mg/kg), Day 5 (vehicle 1.1)): 0.6-0.9 | decrease in fecal blood score than the DSS-induced vehicle group ([1]; both Diacerein groups (30 and 60 mg/kg), Day 5): 11.4% | Colon length [2, 8]: 5.6 ± 0.2 cm | Colon weight [2, 8]: 211 ± 10 mg | Colon-to-BW ratio: colon-to-body weight ratio [2, 8]: 1.2 ± 0.1% | BW: body weight on the day of sacrifice [2, 8]: 17.8 ± 0.1 g | Colon length [2, 9]: 5.4 ± 0.3 cm | Colon weight [2, 9]: 211 ± 0.1 mg | Colon-to-BW ratio: colon-to-body weight ratio [2, 9]: 1.2 ± 0.1% | BW: body weight on the day of sacrifice [2, 9]: 17.8 ± 0.3 g | body weight changes (in words) ([2]; Diacerein groups (30 and 60 mg/kg PO QD), 5-day treatment): maintain the body weights close to the Sham animals | increase in body weight on the day of sacrifice than the DSS-induced vehicle group ([2]; both Diacerein groups (30 and 60 mg/kg PO QD), significant): 6.6% | colonic damage score [4, 8]: 4.1 ± 0.1 | diarrhea score [4, 8]: 1.0 ± 0.0 | thickness score [4, 8]: 1.0 ± 0.0 | ulceration score [4, 8]: 2.1 ± 0.1 | decrease in colonic damage score than the DSS-induced vehicle group ([4]; Diacerein 30 mg/kg, not statistically significant): 6.8% | diarrhea score vs DSS-induced vehicle group (in words) ([4]; Diacerein 60 mg/kg): lower effect on diarrhea score than the DSS-induced vehicle group, but the observed effect was not statistically significant | colonic damage score [4, 9]: 3.8 ± 0.1 | thickness score [4, 9]: 0.9 ± 0.0 | ulceration score [4, 9]: 2.0 ± 0.0 | decrease in colonic damage score than the DSS-induced vehicle group ([4]; Diacerein 60 mg/kg, significant, p<0.05): 13.6%

Nc1ccc(O)c(C(=O)O)c1 [Mesalazine, 5-Amino-2-hydroxybenzoic acid]
loss of crypt and epithelium in HE-stained colon sections vs Vehicle group ([3]; Mesalazine treatment alone (20 and 100 mg/kg)): No significant effect | loss/damage of crypt and epithelium in colon sections vs DSS-induced vehicle group [3]: less loss of crypt and epithelium | crypt and epithelium damages induced by DSS, microscopic examination of colon sections ([3]; Mesalazine treatments (20 and 60 mg/kg)): clearly reduced | fecal blood score vs Vehicle group (in words) ([1]; Mesalazine 20 mg/kg, only at Day 1): significant reduction | effect on DAI (in words) ([1]; Mesalazine 20 mg/kg, throughout 5-day treatment): no effect | fecal blood score vs Vehicle group (in words) ([1]; Mesalazine 100 mg/kg, Day 1 to 3): significant reduction | Diarrheal stool score vs Vehicle group (in words) [1, 10]: significant reduction | effect on DAI (in words) [1, 10]: significant reduction | effect on DAI (in words) ([1]; Mesalazine 100 mg/kg, Day 4 or Day 5): no clear reduction in DAI | DAI results (in words) ([1]; Mesalazine (60 mg/kg)): effective | body weight score (in words) ([1]; Mesalazine (60 mg/kg)): significant effects on reducing the body weight score | diarrheal stool score (in words) [1, 11]: significantly decreased | fecal blood score (in words) [1, 11]: significantly decreased | body weight score ([1]; both Mesalazine groups (20 and 100 mg/kg), Day 4): 1.0-1.3 | body weight score [1, 12]: 1.6-1.9 | decrease in fecal blood score than the DSS-induced vehicle group [1, 12]: 11.4% | colon weight vs DSS-induced vehicle group (in words) ([2]; Mesalazine 20 mg/kg): significant improvement in colon weight | Colon length [2, 13]: 5.0 ± 0.2 cm | Colon weight [2, 13]: 202 ± 6 mg | Colon length [2, 14]: 5.3 ± 0.3 cm | Colon weight [2, 14]: 202 ± 8 mg | colon weight vs DSS-induced vehicle group (in words) ([2]; Mesalazine (60 mg/kg)): lower effect on colon weight than the DSS-induced vehicle group | prevention of the body weight loss by DSS-induction (in words) ([2]; Mesalazine (60 mg/kg)): able to prevent the body weight loss | improvement in colon length than the DSS-induced vehicle group ([2]; both Mesalazine groups (20 and 100 mg/kg PO QD), not statistically significant): 3-9% | diarrhea score vs DSS-induced vehicle group (in words) ([4]; Mesalazine 20 mg/kg): significant decrease in diarrhea score | colonic damage score [4, 13]: 3.5 ± 0.2 | thickness score [4, 13]: 1.0 ± 0.0 | ulceration score [4, 13]: 2.0 ± 0.0 | decrease in colonic damage score than the DSS-induced vehicle group ([4]; Mesalazine 20 mg/kg, significant, p<0.05): 20.5% | colonic damage score [4, 14]: 4.0 ± 0.0 | diarrhea score [4, 14]: 1.0 ± 0.0 | thickness score [4, 14]: 1.0 ± 0.0 | ulceration score [4, 14]: 2.0 ± 0.0 | decrease in colonic damage score than the DSS-induced vehicle group ([4]; Mesalazine 100 mg/kg, not statistically significant): 9.1%
